The test system of this assay is MV-4-11 cells. Kind of assay: Gene expression microarray analysis (Affymetrix PrimeView) and GSEA. To be noted: MV-4-11 cells, 48 hours. In kind it is cell-based, human. Set-up: RFU PODN (11730768_x_at) / Fold change /veh PODN (11730768_x_at) / RFU LINC00158 (11744669_a_at) / Fold change /veh LINC00158 (11744669_a_at) / RFU DUSP10 (11751237_a_at) / Fold change /veh DUSP10 (11751237_a_at) / RFU ID3 (11757404_x_at) / Fold change /veh ID3 (11757404_x_at) / RFU PLEKHG5 (11737974_s_at) / Fold change /veh PLEKHG5 (11737974_s_at) / RFU LRRC4B (11730491_at) / Fold change /veh LRRC4B (11730491_at) / RFU GIMAP4 (11747438_a_at) / Fold change /veh GIMAP4 (11747438_a_at) / RFU KRT8 (11758183_x_at) / Fold change /veh KRT8 (11758183_x_at) / RFU CNN1 (11734310_a_at) / Fold change /veh CNN1 (11734310_a_at) / RFU VPS37D (11726825_at) / Fold change /veh VPS37D (11726825_at) / RFU C10orf10 (11716522_x_at) / Fold change /veh C10orf10 (11716522_x_at) / RFU KIR2DL2 /// KIR2DL4 /// KIR2DL5A /// KIR2DL5B /// KIR2DS1 /// KIR2DS2 /// KIR2DS3 /// KIR2DS4 /// KIR3DL3 /// KIR3DL3 /// KIR3DS1 (11738374_at) / Fold change /veh KIR2DL2 /// KIR2DL4 /// KIR2DL5A /// KIR2DL5B /// KIR2DS1 /// KIR2DS2 /// KIR2DS3 /// KIR2DS4 /// KIR3DL3 /// KIR3DL3 /// KIR3DS1 (11738374_at) / RFU C1QL1 (11718748_at) / Fold change /veh C1QL1 (11718748_at) / RFU TMPRSS4 (11747572_a_at) / Fold change /veh TMPRSS4 (11747572_a_at) / RFU HAMP (11756126_x_at) / Fold change /veh HAMP (11756126_x_at) / RFU RNFT2 (11725882_a_at) / Fold change /veh RNFT2 (11725882_a_at) / RFU NR4A2 (11747474_a_at) / Fold change /veh NR4A2 (11747474_a_at) / RFU ABCC12 (11746883_a_at) / Fold change /veh ABCC12 (11746883_a_at) / RFU TMEM136 (11760407_x_at) / Fold change /veh TMEM136 (11760407_x_at) / RFU CLDN22 /// WWC2 (11732394_at) / Fold change /veh CLDN22 /// WWC2 (11732394_at) / RFU HLA-DPB1 (11760878_x_at) / Fold change /veh HLA-DPB1 (11760878_x_at) / RFU SPINT1 (11716480_a_at) / Fold change /veh SPINT1 (11716480_a_at) / RFU GAP43 (11754022_s_at) / Fold change /veh GAP43 (11754022_s_at) / RFU A4GNT (11735810_at) / Fold change /veh A4GNT (11735810_at) / RFU PRB3 (11715151_x_at) / Fold change /veh PRB3 (11715151_x_at) / RFU TUBB4B (11761932_at) / Fold change /veh TUBB4B (11761932_at) / RFU CAPN14 (11732068_a_at) / Fold change /veh CAPN14 (11732068_a_at) / RFU TMCC2 (11721928_a_at) / Fold change /veh TMCC2 (11721928_a_at) / RFU IRGQ (11745062_a_at) / Fold change /veh IRGQ (11745062_a_at) / RFU FAM174B (11720279_a_at) / Fold change /veh FAM174B (11720279_a_at) / RFU TMPRSS4 (11748680_a_at) / Fold change /veh TMPRSS4 (11748680_a_at) / RFU FAM212B (11763350_a_at) / Fold change /veh FAM212B (11763350_a_at) / RFU PLEKHG5 (11743358_a_at) / Fold change /veh PLEKHG5 (11743358_a_at) / RFU ZSCAN30 (11745921_a_at) / Fold change /veh ZSCAN30 (11745921_a_at) / RFU CMKLR1 (11741424_a_at) / Fold change /veh CMKLR1 (11741424_a_at) / RFU LOC101060620 /// MAPK8IP1 (11723275_at) / Fold change /veh LOC101060620 /// MAPK8IP1 (11723275_at) / RFU SPTSSB (11747773_x_at) / Fold change /veh SPTSSB (11747773_x_at) / RFU PRSS12 (11739890_at) / Fold change /veh PRSS12 (11739890_at) / RFU BIN1 (11741810_x_at) / Fold change /veh BIN1 (11741810_x_at) / RFU WNT11 (11732464_a_at) / Fold change /veh WNT11 (11732464_a_at) / RFU C10orf10 (11716521_a_at) / Fold change /veh C10orf10 (11716521_a_at) / RFU C5orf56 (11738089_at) / Fold change /veh C5orf56 (11738089_at) / RFU CYB561 (11721691_x_at) / Fold change /veh CYB561 (11721691_x_at) / RFU ANKRD19P (11752326_a_at) / Fold change /veh ANKRD19P (11752326_a_at) / RFU OR2T12 /// OR2T33 /// OR2T8 (11738714_s_at) / Fold change /veh OR2T12 /// OR2T33 /// OR2T8 (11738714_s_at) / RFU VCAN (11748164_a_at) / Fold change /veh VCAN (11748164_a_at) / RFU JSRP1 (11732532_at) / Fold change /veh JSRP1 (11732532_at) / RFU KRTAP10-11 (11738290_x_at) / Fold change /veh KRTAP10-11 (11738290_x_at) / RFU MYO3A (11730013_a_at) / Fold change /veh MYO3A (11730013_a_at) / RFU EBF3 (11725865_a_at) / Fold change /veh EBF3 (11725865_a_at) / RFU CAMK2N1 (11719241_x_at) / Fold change /veh CAMK2N1 (11719241_x_at) / RFU C5orf56 (11738088_a_at) / Fold change /veh C5orf56 (11738088_a_at) / RFU OLFML3 (11715873_a_at) / Fold change /veh OLFML3 (11715873_a_at) / RFU LOC100653217 /// NTM (11731650_a_at) / Fold change /veh LOC100653217 /// NTM (11731650_a_at) / RFU MAPK11 (11762145_a_at) / Fold change /veh MAPK11 (11762145_a_at) / RFU FIZ1 (11724087_x_at) / Fold change /veh FIZ1 (11724087_x_at) / RFU OASL (11726364_x_at) / Fold change /veh OASL (11726364_x_at) / RFU SOX15 (11748057_x_at) / Fold change /veh SOX15 (11748057_x_at) / RFU CD79A (11719716_a_at) / Fold change /veh CD79A (11719716_a_at) / RFU HIST1H1D (11736915_at) / Fold change /veh HIST1H1D (11736915_at) / RFU CASKIN2 (11723855_a_at) / Fold change /veh CASKIN2 (11723855_a_at) / RFU LOC730098 (11760151_x_at) / Fold change /veh LOC730098 (11760151_x_at) / RFU OR4N2 (11742367_at) / Fold change /veh OR4N2 (11742367_at) / RFU PRRT2 (11749266_a_at) / Fold change /veh PRRT2 (11749266_a_at) / RFU SNX32 (11753110_a_at) / Fold change /veh SNX32 (11753110_a_at) / RFU CDHR5 (11726645_a_at) / Fold change /veh CDHR5 (11726645_a_at) / RFU RCAN1 (11760418_a_at) / Fold change /veh RCAN1 (11760418_a_at) / RFU FAM167A (11723789_a_at) / Fold change /veh FAM167A (11723789_a_at) / RFU FAM26E (11764081_at) / Fold change /veh FAM26E (11764081_at) / RFU ISYNA1 (11749810_s_at) / Fold change /veh ISYNA1 (11749810_s_at) / RFU ACY1 (11761880_at) / Fold change /veh ACY1 (11761880_at) / RFU 11764098_at / Fold change /veh 11764098_at / RFU SAMD14 (11745864_x_at) / Fold change /veh SAMD14 (11745864_x_at) / RFU NPB (11741838_a_at) / Fold change /veh NPB (11741838_a_at) / RFU TMPRSS6 (11731388_a_at) / Fold change /veh TMPRSS6 (11731388_a_at) / RFU KRTAP10-2 (11738614_at) / Fold change /veh KRTAP10-2 (11738614_at) / RFU ARHGAP8 /// PRR5-ARHGAP8 (11727945_x_at) / Fold change /veh ARHGAP8 /// PRR5-ARHGAP8 (11727945_x_at) / RFU KRTAP5-7 /// NADSYN1 (11734609_at) / Fold change /veh KRTAP5-7 /// NADSYN1 (11734609_at) / RFU RASL12 (11751679_a_at) / Fold change /veh RASL12 (11751679_a_at) / RFU CDKN2B (11736163_a_at) / Fold change /veh CDKN2B (11736163_a_at) / RFU PRF1 (11729649_at) / Fold change /veh PRF1 (11729649_at) / RFU, ZNF638 /// ZNF638-IT1 / Fold change vs veh, ZNF638 /// ZNF638-IT1 / RFU, PANK3 / Fold change vs veh, PANK3 / RFU, SH3YL1 / Fold change vs veh, SH3YL1 / RFU, ZEB2 / Fold change vs veh, ZEB2 / RFU, NRIP1 / Fold change vs veh, NRIP1 / RFU, PTTG1IP / Fold change vs veh, PTTG1IP / RFU, CAPN2 / Fold change vs veh, CAPN2 / RFU, MED14 / Fold change vs veh, MED14 / RFU, SNORA58 / Fold change vs veh, SNORA58 / RFU, C1orf63 / Fold change vs veh, C1orf63 / RFU, LRRFIP1 / Fold change vs veh, LRRFIP1 / RFU, NDUFAF7 / Fold change vs veh, NDUFAF7 / RFU, SLC12A2 / Fold change vs veh, SLC12A2 / RFU, IBTK / Fold change vs veh, IBTK / RFU, ESF1 / Fold change vs veh, ESF1 / Fold change vs veh, TMEM50B / RFU, TAOK1 / Fold change vs veh, TAOK1 / RFU, ACBD3 / Fold change vs veh, ACBD3 / RFU, TMA16 / Fold change vs veh, TMA16 / RFU, RWDD3 / Fold change vs veh, RWDD3 / RFU, BCAT1 / Fold change vs veh, BCAT1 / RFU, EDEM3 / Fold change vs veh, EDEM3 / RFU, TMEM33 / Fold change vs veh, TMEM33 / RFU, WDR75 / Fold change vs veh, WDR75 / RFU, AHCTF1 / Fold change vs veh, AHCTF1 / RFU, TFRC / Fold change vs veh, TFRC / RFU, ZDHHC17 / Fold change vs veh, ZDHHC17 / RFU, NOM1 / Fold change vs veh, NOM1 / RFU, ARL8B / Fold change vs veh, ARL8B / RFU, ZBTB11 / Fold change vs veh, ZBTB11 / RFU, TAMM41 / Fold change vs veh, TAMM41 / RFU, KIAA1704 /// LOC100996395 / Fold change vs veh, KIAA1704 /// LOC100996395 / RFU, ING1 / Fold change vs veh, ING1 / RFU, TRMT61B / Fold change vs veh, TRMT61B / RFU, FUBP3 / Fold change vs veh, FUBP3 / RFU, TP53 / Fold change vs veh, TP53 / RFU, TNKS2 / Fold change vs veh, TNKS2 / RFU, ZFP14 / Fold change vs veh, ZFP14 / RFU, ACTR2 / Fold change vs veh, ACTR2 / RFU, PPP3R1 / Fold change vs veh, PPP3R1 / RFU, PIK3R1 / Fold change vs veh, PIK3R1 / RFU, HNRNPA1 / Fold change vs veh, HNRNPA1 / RFU, RNF170 / Fold change vs veh, RNF170 / RFU, ZNF28 / Fold change vs veh, ZNF28 / RFU, RNGTT / Fold change vs veh, RNGTT / RFU, OGT / Fold change vs veh, OGT / RFU, BRD1 / Fold change vs veh, BRD1 / RFU, MARS / Fold change vs veh, MARS / RFU, ZNF655 / Fold change vs veh, ZNF655 / RFU, FAHD1 / Fold change vs veh, FAHD1 / RFU, BDP1 / Fold change vs veh, BDP1 / RFU, LRRCC1 / Fold change vs veh, LRRCC1 / RFU, ARID1A / Fold change vs veh, ARID1A / RFU, ZNF146 / Fold change vs veh, ZNF146 / RFU, ZNF330 / Fold change vs veh, ZNF330 / RFU, GPN3 / Fold change vs veh, GPN3 / RFU, C9orf123 / Fold change vs veh, C9orf123 / RFU, N4BP2L2 / Fold change vs veh, N4BP2L2 / RFU, ARFIP1 / Fold change vs veh, ARFIP1 / RFU, FAM179B / Fold change vs veh, FAM179B / RFU, BCL10 / Fold change vs veh, BCL10 / RFU, UHRF1BP1L / Fold change vs veh, UHRF1BP1L / RFU, BET1 / Fold change vs veh, BET1 / RFU, CNOT2 / Fold change vs veh, CNOT2 / RFU, ZNF268 / Fold change vs veh, ZNF268 / Fold change vs veh, ZNF507 / RFU, DGCR2 / Fold change vs veh, DGCR2 / RFU, WDSUB1 / Fold change vs veh, WDSUB1 / Fold change vs veh, HSP90B1 /// MIR3652 / RFU, ADSS / Fold change vs veh, ADSS / RFU, GK / Fold change vs veh, GK / RFU, ZNF148 / Fold change vs veh, ZNF148 / RFU, TAF9 / Fold change vs veh, TAF9 / RFU, SLC1A5 / Fold change vs veh, SLC1A5 / RFU, SLMO2 / Fold change vs veh, SLMO2 / RFU, ABCC4 / Fold change vs veh, ABCC4 / RFU, LOC101060439 /// RAP1B / Fold change vs veh, LOC101060439 /// RAP1B / RFU, RFX7 / Fold change vs veh, RFX7 / RFU, GTPBP10 / Fold change vs veh, GTPBP10 / RFU, CNEP1R1 / Fold change vs veh, CNEP1R1 / RFU, BIVM-ERCC5 /// ERCC5 / Fold change vs veh, BIVM-ERCC5 /// ERCC5 / RFU, ILF3 / Fold change vs veh, ILF3 / RFU 11762660_at / Fold change /veh 11762660_at / RFU VCAN (11757783_s_at) / Fold change /veh VCAN (11757783_s_at) / RFU DDX43 (11728927_at) / Fold change /veh DDX43 (11728927_at) / RFU KRT8 (11758188_x_at) / Fold change /veh KRT8 (11758188_x_at) / RFU NKD1 (11759106_at) / Fold change /veh NKD1 (11759106_at) / RFU SRD5A1 (11742802_a_at) / Fold change /veh SRD5A1 (11742802_a_at) / RFU TPSAB1 /// TPSB2 (11721975_s_at) / Fold change /veh TPSAB1 /// TPSB2 (11721975_s_at) / RFU GSTM3 (11746129_a_at) / Fold change /veh GSTM3 (11746129_a_at) / RFU IL23R (11737362_x_at) / Fold change /veh IL23R (11737362_x_at) / RFU TMEM51 (11727254_a_at) / Fold change /veh TMEM51 (11727254_a_at) / RFU PIWIL2 (11732686_x_at) / Fold change /veh PIWIL2 (11732686_x_at) / RFU ORM1 (11744905_x_at) / Fold change /veh ORM1 (11744905_x_at) / RFU CCDC152 (11743942_at) / Fold change /veh CCDC152 (11743942_at) / RFU ECM1 (11717891_a_at) / Fold change /veh ECM1 (11717891_a_at) / RFU IL23R (11748794_a_at) / Fold change /veh IL23R (11748794_a_at) / RFU TNFAIP8L3 (11732012_x_at) / Fold change /veh TNFAIP8L3 (11732012_x_at) / RFU MBOAT4 (11741988_at) / Fold change /veh MBOAT4 (11741988_at) / RFU 11764193_at / Fold change /veh 11764193_at / RFU TMEM53 (11763286_at) / Fold change /veh TMEM53 (11763286_at) / RFU MAGEB2 (11727129_at) / Fold change /veh MAGEB2 (11727129_at) / RFU TMEM200A (11744735_a_at) / Fold change /veh TMEM200A (11744735_a_at) / RFU CCDC152 (11751479_a_at) / Fold change /veh CCDC152 (11751479_a_at) / RFU FAM211A (11726209_a_at) / Fold change /veh FAM211A (11726209_a_at) / RFU RGS16 (11746705_a_at) / Fold change /veh RGS16 (11746705_a_at) / RFU VCAN (11755009_s_at) / Fold change /veh VCAN (11755009_s_at) / RFU RHOB (11743442_s_at) / Fold change /veh RHOB (11743442_s_at) / RFU RGS16 (11720943_a_at) / Fold change /veh RGS16 (11720943_a_at) / RFU RGS16 (11720944_at) / Fold change /veh RGS16 (11720944_at) / RFU, VPS4B / Fold change vs veh, VPS4B / RFU, CREB1 / Fold change vs veh, CREB1 / RFU, DNAJC13 / Fold change vs veh, DNAJC13 / RFU, GNAQ / Fold change vs veh, GNAQ / RFU, CDK5R1 / Fold change vs veh, CDK5R1 / RFU, ZRANB3 / Fold change vs veh, ZRANB3 / RFU, CUL4A / Fold change vs veh, CUL4A / RFU, CCNY / Fold change vs veh, CCNY / RFU, UFL1 / Fold change vs veh, UFL1 / RFU, COG3 / Fold change vs veh, COG3 / RFU, DIAPH2 / Fold change vs veh, DIAPH2 / RFU, SKA2 / Fold change vs veh, SKA2 / RFU, AFF3 / Fold change vs veh, AFF3 / RFU, LMF1 / Fold change vs veh, LMF1 / RFU, IPO11 / Fold change vs veh, IPO11 / RFU, DFFB / Fold change vs veh, DFFB / RFU, FOXP1 / Fold change vs veh, FOXP1 / RFU, CARD8 / Fold change vs veh, CARD8 / RFU, STRN3 / Fold change vs veh, STRN3 / RFU, ADK / Fold change vs veh, ADK / RFU, RASSF2 / Fold change vs veh, RASSF2 / RFU, WIPF1 / Fold change vs veh, WIPF1 / RFU, LARP1B / Fold change vs veh, LARP1B / RFU, RASA1 / Fold change vs veh, RASA1 / RFU, RB1 / Fold change vs veh, RB1 / RFU, PPFIA1 / Fold change vs veh, PPFIA1 / RFU, MAT2A / Fold change vs veh, MAT2A / RFU, CCT5 / Fold change vs veh, CCT5 / RFU, WDR92 / Fold change vs veh, WDR92 / RFU, CUX1 / Fold change vs veh, CUX1 / RFU, TTC7A / Fold change vs veh, TTC7A / RFU, TMEM135 / Fold change vs veh, TMEM135 / RFU, DEPTOR / Fold change vs veh, DEPTOR / RFU, CPM / Fold change vs veh, CPM / RFU, DNAJB6 / Fold change vs veh, DNAJB6 / RFU, CACNA2D3 / Fold change vs veh, CACNA2D3 / RFU, DTX4 / Fold change vs veh, DTX4 / RFU, TFCP2 / Fold change vs veh, TFCP2 / RFU, GMCL1 /// GMCL1P1 / Fold change vs veh, GMCL1 /// GMCL1P1 / RFU, AEBP2 / Fold change vs veh, AEBP2 / RFU, SNHG1 /// SNORD22 /// SNORD25 /// SNORD26 /// SNORD27 /// SNORD28 /// SNORD29 /// SNORD31 / Fold change vs veh, SNHG1 /// SNORD22 /// SNORD25 /// SNORD26 /// SNORD27 /// SNORD28 /// SNORD29 /// SNORD31 / Fold change (Aza/veh), C12orf56 (ProbeSet 11735607_a_at) / Fold change (ACY-1035/veh), C12orf56 (ProbeSet 11735607_a_at) / Fold change (Aza/veh), FGFR1OP (ProbeSet 11751329_s_at) / Fold change (ACY-1035/veh), FGFR1OP (ProbeSet 11751329_s_at) / Fold change (Aza/veh), VPS36 (ProbeSet 11739960_a_at) / Fold change (ACY-1035/veh), VPS36 (ProbeSet 11739960_a_at) / RFU SYPL1 (11715823_x_at) / Fold change /veh SYPL1 (11715823_x_at) / RFU IGFBP7 (11715501_s_at) / Fold change /veh IGFBP7 (11715501_s_at) / RFU REEP3 (11722064_at) / Fold change /veh REEP3 (11722064_at) / RFU IGLL1 (11728026_x_at) / Fold change /veh IGLL1 (11728026_x_at): dose or concentration left out as unconfirmed.

`Nc1ccc(-c2cccs2)cc1NC(=O)c1ccc2c(c1)cc(C1CC1)n2CCN1CCOCC1` [ACY-1035]: the “RFU OR2T12 /// OR2T33 /// OR2T8 (11738714_s_at)” value is on record as 6.34 RFU.

These data come from article PMC5218480 (PLoS ONE, 2017).
